Results published in patent publication US4923963A, “Bradykinin antagonist peptides” (Nova Technology Limited Partnership, priority 1987, dated 1990).
Where two headings read alike, the source gives them in different places. Square brackets hold non-standard residues; d marks the D form. Peptide text beside a SMILES is read from it. dPhe(4-Cl) = N[C@H](Cc1ccc(Cl)cc1)C(=O)O; d2Nal = N[C@H](Cc1ccc2ccccc2c1)C(=O)O; Hyp = O=C(O)[C@@H]1C[C@@H](O)CN1; 2Thi = N[C@@H](Cc1cccs1)C(=O)O; d2Thi = N[C@H](Cc1cccs1)C(=O)O

What was measured:
[1] = tested on: isolated guinea pig ileum; assay type: cell-based; design: pA2 /GPI: activity class: scale not given here; conditions: isolated guinea pig ileum; not quantitated
Method: (§1) The bradykinin antagonists were assayed on isolated rat uterus in natural or induced estrus and on guinea pig ileum, according to the commonly accepted assay methods for bradykinin and related kinins as described by Trautschold (Handbook of Expt. Pharmacol. Vol 25, Springer Verlag, pp. 53-55, 1970) for inhibition of the myotropic activity of bradykinin. The inhibition potencies, as determined according to the commonly accepted manner described by Schild for antagonists of biologically active compounds (Br. J. Pharmacol. 2:189, 1947), and expressed as pA2 values are determined on isolated rat uterus (RUT) and isolated guinea pig ileum (GPI). In the assays, a dose-response curve is determined for the reference substance bradykinin. The dose of bradykinin which produced a half maximal contraction of tissue is the ED50 dose. An amount of bradykinin equivalent to twice the ED50 dose is administered to the tissue 30 seconds after the start of incubation of the tissue with a dose of antagonist. Doses of antagonist are increased in this protocol until pre-incubation with a dose of antagonist reduces the contraction in response to the double ED50 dose of bradykinin to response of a single ED50 dose of bradykinin. The pA2 value represents the negative logarithm of the molar concentration of antagonist necessary to reduce the response of a double ED50 dose of bradykinin to that of an ED50 dose. One unit of pA2 value represents an order of magnitude change in potency. For comparison, the negative log of the dose of BK, the dose which causes half maximal contraction of the tissues, is commonly known as the pD2 value. The pD2 value for bradykinin is 7.9 on the rat uterus and 7.4 on the guinea pig ileum.

[2] = tested on: isolated rat uterus; assay type: cell-based; conditions: for pA2 /RUT: activity class: not quantitated
Method: as §1

[3] = tested on: rat blood pressure; assay: effects on blood pressure in the anesthetized rat (RBP), intraaortic and intravenous bolus; assay type: in vivo; design: RBP-IA: activity class / RBP-IV: activity class: scale not given here; conditions: rat blood pressure; for RBP-IA: activity class: intraaortic bolus; for RBP-IV: activity class: intravenous bolus
Method: The in vivo effects of bradykinin antagonists on blood pressure in the anesthetized rat are determined according to the assay described by Roblero, Ryan and Stewart (Res. Commun. Pathol. Pharmacol. 6:207, 1973). The antagonists also produce inhibition of the bradykinin response when injected as a bolus admixture of bradykinin plus antagonist by either the ia or iv route of administration.

Row | Structure (SMILES) | pA2 /GPI: activity class [1] | pA2 /RUT (antagonist potency) [2] | pA2 /RUT: activity class ([2]; isolated rat uterus) | RBP-IA: activity class [3] | RBP-IV: activity class [3] | pA2 /RUT (antagonist potency) ([2]; isolated rat uterus, number of tissues in parentheses)
1 | N=C(N)NCCC[C@H](NC(=O)[C@H](Cc1ccccc1)NC(=O)[C@@H](Cc1ccccc1)NC(=O)[C@H](CO)NC(=O)[C@H](Cc1ccccc1)NC(=O)CNC(=O)[C@@H]1CCCN1C(=O)[C@@H]1CCCN1C(=O)[C@H](N)Cc1ccc2ccccc2c1)C(=O)O [Example 29, DNal-Pro-Pro-Gly-Phe-Ser-DPhe-Phe-Arg] (H-[d2Nal]PPGFS[dF]FR-OH) | 0 | 5.4 |  |  |  | 
2 | N=C(N)NCCC[C@@H](N)C(=O)N[C@@H](CCCNC(=N)N)C(=O)N1CCC[C@H]1C(=O)N1CCC[C@H]1C(=O)NCC(=O)N[C@@H](Cc1cccs1)C(=O)N[C@@H](CO)C(=O)N[C@H](Cc1ccccc1)C(=O)N[C@@H](Cc1cccs1)C(=O)N[C@H](CCCNC(=N)N)C(=O)O [Example 43, DArg-Arg-Pro-Pro-Gly-Thi-Ser-DPhe-Thi-DArg] (H-[dR]RPPG[2Thi]S[dF][2Thi][dR]-OH) | 0 |  | 0 |  |  | 
3 | N=C(N)NCCC[C@H](NC(=O)[C@H](Cc1cccs1)NC(=O)[C@@H](Cc1ccccc1)NC(=O)[C@H](CO)NC(=O)[C@H](Cc1cccs1)NC(=O)CNC(=O)[C@@H]1C[C@@H](O)CN1C(=O)[C@@H]1C[C@@H](O)CN1C(=O)[C@@H](Cc1ccc2ccccc2c1)NC(=O)[C@H](CCCCN)NC(=O)[C@@H](N)CCCCN)C(=O)O [Example 28, Lys-Lys-DNal-Hyp-Hyp-Gly-Thi-Ser-DPhe-Thi-Arg] (H-KK[d2Nal][Hyp][Hyp]G[2Thi]S[dF][2Thi]R-OH) | 0 |  | 0 |  |  | 
4 | N=C(N)NCCC[C@@H](N)C(=O)N[C@H](Cc1ccc2ccccc2c1)C(=O)N1CCC[C@H]1C(=O)N1CCC[C@H]1C(=O)NCC(=O)N[C@@H](Cc1ccccc1)C(=O)N[C@@H](CO)C(=O)N[C@H](Cc1ccccc1)C(=O)N[C@@H](Cc1ccccc1)C(=O)N[C@@H](CCCNC(=N)N)C(=O)O [Example 31, DArg-DNal-Pro-Pro-Gly-Phe-Ser-DPhe-Phe-Arg] (H-[dR][d2Nal]PPGFS[dF]FR-OH) | 0 | 5.6 |  |  |  | 
5 | CC[C@@H](C)[C@@H](N)C(=O)N1CCC[C@H]1C(=O)N1C[C@H](O)C[C@H]1C(=O)NCC(=O)N[C@@H](Cc1ccccc1)C(=O)N[C@@H](CO)C(=O)N[C@H](Cc1ccccc1)C(=O)N[C@@H](Cc1ccccc1)C(=O)N[C@@H](CCCNC(=N)N)C(=O)O [Example 17, DIle-Pro-Hyp-Gly-Phe-Ser-DPhe-Phe-Arg] (H-[dI]P[Hyp]GFS[dF]FR-OH) | 0 |  |  | 0 | 0 | 
6 | N=C(N)NCCC[C@H](NC(=O)[C@H](Cc1ccccc1)NC(=O)[C@@H](Cc1cccs1)NC(=O)[C@H](CO)NC(=O)[C@H](Cc1ccccc1)NC(=O)CNC(=O)[C@@H]1CCCN1C(=O)[C@@H]1CCCN1C(=O)[C@H](N)Cc1ccc2ccccc2c1)C(=O)O [Example 37, DNal-Pro-Pro-Gly-Phe-Ser-DThi-Phe-Arg] (H-[d2Nal]PPGFS[d2Thi]FR-OH) | 0 |  | 0 |  |  | 
7 | N=C(N)NCCC[C@@H](N)C(=O)N[C@H](Cc1ccc(Cl)cc1)C(=O)N1CCC[C@H]1C(=O)N1CCC[C@H]1C(=O)NCC(=O)N[C@@H](Cc1ccccc1)C(=O)N[C@@H](CO)C(=O)N[C@H](Cc1ccccc1)C(=O)N[C@@H](Cc1ccccc1)C(=O)N[C@@H](CCCNC(=N)N)C(=O)O [Example 4, DArg-CDF-Pro-Pro-Gly-Phe-Ser-DPhe-Phe-Arg] (H-[dR][dPhe(4-Cl)]PPGFS[dF]FR-OH) | 0 |  |  |  |  | 5.4
8 | N=C(N)NCCC[C@@H](N)C(=O)N[C@H](Cc1ccc2ccccc2c1)C(=O)N1CCC[C@H]1C(=O)N1C[C@H](O)C[C@H]1C(=O)NCC(=O)N[C@@H](Cc1ccccc1)C(=O)N[C@@H](CO)C(=O)N[C@H](Cc1cccs1)C(=O)N[C@@H](Cc1ccccc1)C(=O)N[C@@H](CCCNC(=N)N)C(=O)O [Example 40, DArg-DNal-Pro-Hyp-Gly-Phe-Ser-DThi-Phe-Arg] (H-[dR][d2Nal]P[Hyp]GFS[d2Thi]FR-OH) | 0 | 5.6 |  |  |  | 
9 | CC(=O)N[C@@H](CCCNC(=N)N)C(=O)N1CCC[C@H]1C(=O)N1CCC[C@H]1C(=O)NCC(=O)N[C@@H](Cc1cccs1)C(=O)N[C@@H](CO)C(=O)N[C@H](Cc1ccccc1)C(=O)N[C@@H](Cc1cccs1)C(=O)N[C@H](CCCNC(=N)N)C(N)=O [Example 56, Ac-Arg-Pro-Pro-Gly-Thi-Ser-DPhe-Thi-DArg-NH2] (Ac-RPPG[2Thi]S[dF][2Thi][dR]-NH2) | 0 |  | 0 |  |  | 
10 | CC[C@@H](C)[C@@H](NC(=O)[C@H](N)CCCNC(=N)N)C(=O)N1CCC[C@H]1C(=O)N1C[C@H](O)C[C@H]1C(=O)NCC(=O)N[C@@H](Cc1ccccc1)C(=O)N[C@@H](CO)C(=O)N[C@H](Cc1ccccc1)C(=O)N[C@@H](Cc1ccccc1)C(=O)N[C@@H](CCCNC(=N)N)C(=O)O [Example 18, DArg-DIle-Pro-Hyp-Gly-Phe-Ser-DPhe-Phe-Arg] (H-[dR][dI]P[Hyp]GFS[dF]FR-OH) | 0 |  |  | 0 | 0 | 
11 | CC(C)[C@@H](NC(=O)[C@H](N)CCCNC(=N)N)C(=O)N1CCC[C@H]1C(=O)N1C[C@H](O)C[C@H]1C(=O)NCC(=O)N[C@@H](Cc1ccccc1)C(=O)N[C@@H](CO)C(=O)N[C@H](Cc1ccccc1)C(=O)N[C@@H](Cc1ccccc1)C(=O)N[C@@H](CCCNC(=N)N)C(=O)O [Example 16, DArg-DVal-Pro-Hyp-Gly-Phe-Ser-DPhe-Phe-Arg] (H-[dR][dV]P[Hyp]GFS[dF]FR-OH) | 0 |  |  | 0 | 0 | 
12 | N=C(N)NCCC[C@H](NC(=O)[C@H](Cc1cccs1)NC(=O)[C@@H](Cc1ccccc1)NC(=O)[C@H](CO)NC(=O)[C@H](Cc1cccs1)NC(=O)CNC(=O)[C@@H]1CCCN1C(=O)[C@@H]1CCCN1C(=O)[C@@H](Cc1ccc2ccccc2c1)NC(=O)[C@H](CCCCN)NC(=O)[C@@H](N)CCCCN)C(=O)O [Example 24, Lys-Lys-DNal-Pro-Pro-Gly-Thi-Ser-DPhe-Thi-Arg] (H-KK[d2Nal]PPG[2Thi]S[dF][2Thi]R-OH) | 0 |  |  |  |  | 
13 | N=C(N)NCCC[C@@H](N)C(=O)N[C@H](Cc1cccs1)C(=O)N1CCC[C@H]1C(=O)N1C[C@H](O)C[C@H]1C(=O)NCC(=O)N[C@@H](Cc1ccccc1)C(=O)N[C@@H](CO)C(=O)N[C@H](Cc1cccs1)C(=O)N[C@@H](Cc1ccccc1)C(=O)N[C@@H](CCCNC(=N)N)C(=O)O [Example 36, DArg-DThi-Pro-Hyp-Gly-Phe-Ser-DThi-Phe-Arg] (H-[dR][d2Thi]P[Hyp]GFS[d2Thi]FR-OH) | 0 |  |  |  |  | 
14 | N=C(N)NCCC[C@H](NC(=O)[C@H](Cc1ccccc1)NC(=O)[C@@H](Cc1cccs1)NC(=O)[C@H](CO)NC(=O)[C@H](Cc1ccccc1)NC(=O)CNC(=O)[C@@H]1CCCN1C(=O)[C@@H]1CCCN1C(=O)[C@H](N)Cc1ccc(Cl)cc1)C(=O)O [Example 6, CDF-Pro-Pro-Gly-Phe-Ser-DThi-Phe-Arg] (H-[dPhe(4-Cl)]PPGFS[d2Thi]FR-OH) | 0 |  |  | 0 | 0 | 
